According to PubChem BioAssay AID2060494 (Molecular Pharmacology Branch, DTP, NCI, 2025):

Test system: 435261-313-R-J1-PDC complex spheroid viability
Assay: Anticancer human tumor 435261-313-R-J1-PDC patient-derived colon adenocarcinoma cell line growth inhibition [GQUAD]
Details: for IC50: curve of first compound; for viability, T/C: stronger effect = lower value; active means viability on the fitted dose curve at most 10% of control; inactive means the rest
Method in brief: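 Viability of tumor cells grown as complex spheroids with endothelial and stromal cells, exposed to drug combinations. Top concentration at or near clinical Cmax (else 10 microM), diluted in half-log increments.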
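Further: spheroids exposed to the agents for seven days before readout.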
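Wherever viability, T/C is given: percent of vehicle control viability with DMSO wells as 100%.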

CC[C@@]1(O)C(=O)OCc2c1cc1n(c2=O)Cc2cc3c(CN(C)C)c(O)ccc3nc2-1 + Cc1[nH]c2ccc(F)cc2c1-c1nc2c3cccnc3c3ncccc3c2[nH]1
< 0.999 nM: IC50 (second compound 3.16 µM) | IC50 (second compound 10 µM)
inactive: viability, T/C (second compound 0.0316 µM, first compound 0.000999 µM) 90.1% | viability, T/C (second compound 0.0316 µM, first compound 0.00316 µM) 76.8% | viability, T/C (second compound 0.0316 µM, first compound 0.00999 µM) 84.8% | viability, T/C (second compound 0.0316 µM, first compound 0.0316 µM) 74.6% | viability, T/C (second compound 0.0316 µM, first compound 0.0999 µM) 72.9% | viability, T/C (second compound 0.0316 µM, first compound 0.316 µM) 69% | viability, T/C (second compound 0.1 µM, first compound 0.000999 µM) 106% | viability, T/C (second compound 0.1 µM, first compound 0.00316 µM) 74.9% | viability, T/C (second compound 0.1 µM, first compound 0.00999 µM) 108% | viability, T/C (second compound 0.1 µM, first compound 0.0316 µM) 73.6% | viability, T/C (second compound 0.1 µM, first compound 0.0999 µM) 72.8% | viability, T/C (second compound 0.1 µM, first compound 0.316 µM) 59.8% | viability, T/C (second compound 0.316 µM, first compound 0.000999 µM) 89.3% | viability, T/C (second compound 0.316 µM, first compound 0.00316 µM) 80% | viability, T/C (second compound 0.316 µM, first compound 0.00999 µM) 114% | viability, T/C (second compound 0.316 µM, first compound 0.0316 µM) 59.3% | viability, T/C (second compound 0.316 µM, first compound 0.0999 µM) 58.7% | viability, T/C (second compound 0.316 µM, first compound 0.316 µM) 52.6% | viability, T/C (second compound 1 µM, first compound 0.000999 µM) 41.9% | viability, T/C (second compound 1 µM, first compound 0.00316 µM) 67.6% | viability, T/C (second compound 1 µM, first compound 0.00999 µM) 67.9% | viability, T/C (second compound 1 µM, first compound 0.0316 µM) 64.5% | viability, T/C (second compound 1 µM, first compound 0.0999 µM) 54.2% | viability, T/C (second compound 1 µM, first compound 0.316 µM) 47.1% | viability, T/C (second compound 3.16 µM, first compound 0.000999 µM) 41.4% | viability, T/C (second compound 3.16 µM, first compound 0.00316 µM) 34.2% | viability, T/C (second compound 3.16 µM, first compound 0.00999 µM) 37.4% | viability, T/C (second compound 3.16 µM, first compound 0.0316 µM) 28.2% | viability, T/C (second compound 3.16 µM, first compound 0.0999 µM) 23.9% | viability, T/C (second compound 3.16 µM, first compound 0.316 µM) 33.8% | viability, T/C (second compound 10 µM, first compound 0.000999 µM) 19.3% | viability, T/C (second compound 10 µM, first compound 0.00316 µM) 25.4% | viability, T/C (second compound 10 µM, first compound 0.00999 µM) 18.3% | viability, T/C (second compound 10 µM, first compound 0.0316 µM) 24.9% | viability, T/C (second compound 10 µM, first compound 0.0999 µM) 20.7% | viability, T/C (second compound 10 µM, first compound 0.316 µM) 17.9%
> 316 nM: IC50 (second compound 0.0316 µM) | IC50 (second compound 0.1 µM) | IC50 (second compound 0.316 µM) | IC50 (second compound 1 µM)
